From patent publication US20240315994A1, “SMALL MOLECULE MODULATORS OF FERROPTOSIS” (ARPEGGIO BIOSCIENCES, INC., priority 2021, published 2024)

System: HT-1080 fibrosarcoma cells
Assay: HT-1080 single-concentration cell viability screen (Cell Titer Glo)
Type: cell-based
Details: 10 μM compound, 48 hours, duplicate, fraction of control
From the text: To identify potential covalent inhibitors of GPX4, we screened a panel of 294 diverse small molecules from the Enamine covalent inhibitor library (Catalog No. CSL-10480-0-Z-10, Enamine, Monmouth, NJ). Each compound contains either a chloroacetamide or acrylamide moiety theoretically capable of forming a covalent bond with a selenocysteine. The small molecule compounds were selected for a diversity of backbone structures. The screening protocol used the cell viability assay Cell Titer Glo® (available from Promega, Madison, WI). Cell Titer Glo® is a luminescent cell viability that determines the number of viable cells in culture by quantifying ATP, which indicates the presence of metabolically active cells. Briefly, HT-1080 fibrosarcoma cells were plated 24 hours prior to treatment with 10 µM of each compound in the screening panel. Cell Titer Glo® was used to read out cell viability after 48 hours of compound exposure. Data was collected in duplicate.
To determine whether similar molecules could offer other starting points for a medicinal chemistry campaign, we screened 95 additional compounds that contain a similar base structure to that of 8216. Briefly, HT-1080 fibrosarcoma cells were treated with 10 µM of a compound for 48 hours and cell viability was measured by Cell Titer Glo®. Data was collected in duplicate. […]

| Structure (SMILES) | Average relative cell viability |
| --- | --- |
| O=C(CCl)N(Cc1ccc(F)cc1)c1nc(-c2ccccc2)cs1 [Compound Z147647938] | 0.000936 |
| O=C(CCl)N(Cc1ccco1)C1CCS(=O)(=O)C1 (centres unmarked) [Compound Z147652330] | 0.7459 |
| O=C(CCl)N(Cc1ccccc1)c1ccccc1 [Compound Z199424090] | 0.00039 |
| O=C(CCl)N(Cc1ccccc1)Cc1ccc(F)cc1 [Compound Z381549666] | 0.001836 |
| Cc1cc(CN(C(=O)CCl)C2CCCC2)c2ccccc2n1 [Compound Z1562139496] | 0.000174 |
| O=C(CCl)N(Cc1ccccc1)CC1(O)CCOC1 (centres unmarked) [Compound Z1687602192] | 0.1445 |
| CC#CC(=O)N(Cc1ccc(-n2cncn2)cc1)C1CC1 [Compound Z2020497058] | 1.089 |
| CN(Cc1cnc(N(C)C)nc1)C(=O)CCl [Compound Z2596884436] | 0.4026 |
| O=C(CCl)N(Cc1nc2ccsc2c(=O)[nH]1)C1CC1 [Compound Z3217399415] | 1.255 |
| CN(Cc1nc2c(cnn2C)c(=O)[nH]1)C(=O)CCl [Compound Z3337549802] | 1.034 |
| O=C(CCl)N(Cc1cnn(-c2ccccc2)c1)C1CC1 [Compound Z3629871044] | 0.001764 |
| CC1(N(Cc2ccc3c(c2)OCO3)C(=O)CCl)CCCC1 [Compound Z3766260223] | 0.002238 |
| O=C(CCl)N(Cc1cccs1)C1Cc2ccccc2C1 [Compound Z3766262414] | 0.5481 |
| Cn1cc(CN(C(=O)CCl)c2ccc(F)cc2)cn1 [Compound Z3766264621] | 0.02152 |
| O=C(CCl)N(Cc1nc(C2CCCCCC2)no1)C1CC1 [Compound Z3766269910] | 0.002904 |
| CCN1CCCC(CN(C)C(=O)CCl)C1c1cnn(C)c1 (centres unmarked) [Compound Z3766270794] | 0.003474 |
| CC1(C)CC(N(Cc2ccccc2)C(=O)CCl)C(C)(C)O1 (centres unmarked) [Compound Z3766271747] | 0.005616 |
| O=C(CCl)N(Cc1ccns1)c1ccc2c(c1)OCCO2 [Compound Z3837046637] | 0.00972 |
| COc1cccc(CN(CC2CCCO2)C(=O)CCl)c1F (centres unmarked) [Compound Z3837050450] | 0.5148 |

| Structure (SMILES) | Average relative cell viability |
| --- | --- |
| Cc1cc(CN(C(=O)CCl)c2ccc(F)cc2)nn1C [Compound Z3837055210] | 0.001584 |
| Cc1cc(F)ccc1N(Cc1ccnn1C(C)C)C(=O)CCl [Compound Z3837096793] | 0.1701 |
| Cc1cc(CN(Cc2ccn(C)n2)C(=O)CCl)ccc1F [Compound Z3837152585] | 0.007686 |
| Cc1csc(CN(C(=O)CCl)c2cccc(F)c2C)n1 [Compound Z3837197646] | 0.01316 |
| O=C(CCl)N(Cc1cc(F)ccc1F)CC1CCOCC1 [Compound Z3837255186] | 0.1331 |
| O=C(CCl)N(Cc1ccc(Cn2cccn2)cc1)CC1CC1 [Compound Z3837267295] | 0.002112 |
| CC(C)n1nccc1CN(CC1CCCC1)C(=O)CCl [Compound Z3837300268] | 0.00828 |
| Cc1ccc(CN(Cc2cnn(C)c2)C(=O)CCl)cc1C [Compound Z3837366035] | 0.531 |
| COc1ccc(CN(CC2CC(C)=NO2)C(=O)CCl)cc1 (centres unmarked) [Compound Z3837506617] | 0.3267 |
| COC1(CN(Cc2ccn(C)n2)C(=O)CCl)CCCCC1 [Compound Z3837644318] | 0.7407 |
| CCn1cc(CN(C(=O)CCl)C2CC2)c(C)n1 [Compound Z3887631385] | 0.7938 |
| O=C(CCl)N(Cc1ccccc1O)Cc1ccccc1O [Compound Z3952174992] | 0.1517 |
| N#Cc1ccc(CN(C(=O)CCl)C2CC2)c(F)c1 [Compound Z3952175125] | 0.8876 |
| O=C(CCl)N(CC1=CCCOC1)Cc1ccccc1 [Compound Z3952175509] | 0.03047 |
| Cn1ccc(N(Cc2ccccc2)C(=O)CCl)n1 [Compound Z4170009630] | 0.08916 |
| Cl.O=C(CCl)N(Cc1cn2ccccc2n1)C1CC1 [Compound Z4283095766] | 0.9342 |
| O=C(CCl)N(Cc1ccccc1)Cc1cc2n(n1)CCCC2 [Compound Z4323310732] | 0.05332 |
| O=C(CCl)N(Cc1noc2c1CCCC2)c1ccccc1F [Compound Z4323314193] | 0.00483 |
| Cn1nnc(CN(C(=O)CCl)C2CCCCCCC2)n1 [Compound Z4323320274] | 0.002922 |

| Structure (SMILES) | Average relative cell viability |
| --- | --- |
| Cc1nn(C)c(C)c1CN(C(=O)CCl)C1CCCCC1C (centres unmarked) [Compound Z4323324870] | 0.488 |
| C=CCN1CCC(N(Cc2ccc(CC)o2)C(=O)CCl)CC1 [Compound Z4323341765] | 0.7008 |
| COc1cc(CN(C(=O)CCl)C2CCCOC2)ccc1C (centres unmarked) [Compound Z4323349920] | 0.002028 |
| Cc1ccsc1CN(C(=O)CCl)C1CCN(C(C)C)C1=O (centres unmarked) [Compound Z4323355648] | 0.5691 |
| O=C(CCl)N(Cc1ccnn1C1CCC1)C1CC=CCC1 (centres unmarked) [Compound Z4323362848] | 0.001626 |
| COc1ccc(CN(C(=O)CCl)C2CCOC(C)C2)cc1C (centres unmarked) [Compound Z4323373087] | 0.0167 |
| O=C(CCl)N(Cc1cccc2ccoc12)C1CCCOCC1 (centres unmarked) [Compound Z4323385212] | 0.003768 |
| COC1CCC(N(Cc2cc(C)oc2C)C(=O)CCl)CC1 (centres unmarked) [Compound Z4323386801] | 0.01527 |
| O=C(CCl)N(Cc1ccc2c(c1)CCC2)CC1(CCO)CC1 [Compound Z4323486432] | 0.004428 |
| O=C(CCl)N(Cc1ccc2c(c1)OCCO2)Cc1ncoc1C1CCC1 [Compound Z4425210448] | 0.00756 |
| COc1ccc2nc(CN(Cc3ccc(F)cc3)C(=O)CCl)sc2c1 [Compound Z4425210755] | 0.002562 |
| COc1nc2ccc(CN(Cc3ccc(F)cc3)C(=O)CCl)cc2s1 [Compound Z4425210756] | 0.00393 |
| O=C(CCN(Cc1ccc2c(c1)CCOC2)C(=O)CCl)NC1CCCC1 [Compound Z4425210882] | 0.1465 |
| O=C(CCl)N(CC1=CCCCC1)Cc1cc(-c2ccc(Cl)cc2)on1 [Compound Z4425210932] | 0.001926 |
| CC(C)(C)n1nnc(CN(Cc2cccc(C3CC3)c2F)C(=O)CCl)n1 [Compound Z4425210960] | 0.01925 |
| Cc1scc(CN(Cc2ccc3c(c2)OCCCO3)C(=O)CCl)c1C [Compound Z4425210974] | 0.001284 |
| O=C(CCl)N(CCc1ccc(F)cc1)Cc1cnc(C2CCOCC2)o1 [Compound Z4425211012] | 0.0748 |
| O=C(CCl)N(Cc1cnn(C2CCCCC2)c1)CC1(c2ccccc2)CC1 [Compound Z4425211258] | 0.001938 |
